Drawing on ChEMBL document CHEMBL3045667, “Design, synthesis, and anticonvulsant activity of novel quinazolinone analogues” (Med Chem Res, 2011), this text covers logP, ED50 and Activity for 13 compounds.

Series [1] in a line: Lipophilicity, log P of the compound. Type of series: physicochemical. To be noted: octanol/water.
Series [2] has as its system Mus musculus. Description: Anticonvulsant activity in ip dosed Mus musculus (mouse) assessed as protection against pentylenetetrazole-induced seizures administered 1 hr before pentylenetetrazole challenge measured after 30 min. Type of series: functional. Particulars: read-out: PD50.
Series [3] concerns Mus musculus. Description: Anticonvulsant activity in Mus musculus (mouse) assessed as protection against pentylenetetrazole-induced seizures at 150 mg/kg, ip administered 1 hr before pentylenetetrazole challenge measured after 30 min. Particulars: route intraperitoneal. Type of series: functional.
In series [4] the test system is Mus musculus. Description: Anticonvulsant activity in Mus musculus (mouse) assessed as protection against pentylenetetrazole-induced seizures at 50 mg/kg, ip administered 1 hr before pentylenetetrazole challenge measured after 30 min. To be noted: route intraperitoneal. Type of series: functional.
For series [5], the system named is Mus musculus. Description: Anticonvulsant activity in Mus musculus (mouse) assessed as protection against pentylenetetrazole-induced seizures at 100 mg/kg, ip administered 1 hr before pentylenetetrazole challenge measured after 30 min. Type of series: functional. Particulars: route intraperitoneal.
Series [6] deals with Mus musculus. Description: Anticonvulsant activity in Mus musculus (mouse) assessed as protection against pentylenetetrazole-induced seizures at 20 mg/kg, ip administered 1 hr before pentylenetetrazole challenge measured after 30 min. Type of series: functional. Particulars: route intraperitoneal.
In series [7] the test system is Mus musculus. Description: Anticonvulsant activity in Mus musculus (mouse) assessed as protection against pentylenetetrazole-induced seizures at 15 mg/kg, ip administered 1 hr before pentylenetetrazole challenge measured after 30 min. The format is functional. Particulars: route intraperitoneal.
Series [8] relates to Mus musculus. The series can be described thus: Anticonvulsant activity in Mus musculus (mouse) assessed as protection against pentylenetetrazole-induced seizures at 10 mg/kg, ip administered 1 hr before pentylenetetrazole challenge measured after 30 min. Type of series: functional. To be noted: route intraperitoneal.

As usually defined, the logP is a log measure of how a compound divides between an organic and an aqueous phase. For `O=c1c2ccccc2n2c(-c3ccc(Cl)cc3)nnc2n1-c1ccccc1`, the logP in series [1] stood at 5.25. In addition, the ED50 in the series with Mus musculus [2] stood at 64 mg/kg. The results for the Activity with Mus musculus [3], with Mus musculus [4] and with Mus musculus [5] were 100%, 37.5% and 62.5%, respectively.
Take `COc1ccc(/C=N/Nc2nc3ccccc3c(=O)n2-c2ccccc2)cc1OC`: the logP in series [1] came out at 4.72. For the same compound, the ED50 with Mus musculus [2] turned out to be 83 mg/kg. In addition, the Activity was found to be 87.5% in the series with Mus musculus [3], 25% with Mus musculus [4] and 62.5% in the series with Mus musculus [5].
Take `O=C(CSc1nc2ccccc2c(=O)n1-c1ccccc1)c1ccc(Br)cc1`: the logP in series [1] is 5.77. Moreover, in the series on Mus musculus [2], the ED50 stood at 78 mg/kg. The figures for the Activity in the series on Mus musculus [3], in the series with Mus musculus [4] and in the series on Mus musculus [5] were 100%, 37.5% and 50%, respectively.
The matching figures for `COc1ccc(-c2nnc3n(-c4ccccc4)c(=O)c4ccccc4n23)cc1OC`: 4.44, 160 mg/kg, 50%, 12.5% and 37.5%.
Turning to `COc1ccc(C(=O)CSc2nc3ccccc3c(=O)n2-c2ccccc2)cc1`, in series [1], the log partition coefficient (logP) was 4.82. The ED50 in the series with Mus musculus [2] is 85 mg/kg. Besides, the Activity with Mus musculus [3] stood at 87.5%; with Mus musculus [4] it was 37.5%; in the series with Mus musculus [5], 50%.
`O=c1c2ccccc2nc(N/N=C/c2ccc(Cl)cc2)n1-c1ccccc1` yielded a logP in series [1] of 5.53. Further, the ED50 in the series on Mus musculus [2] was 50 mg/kg. Further, the Activity worked out at 100% in the series on Mus musculus [3], 50% in the series on Mus musculus [4] and 100% in the series on Mus musculus [5].
In series [1], `CCn1c(SCC(=O)c2ccc(Br)cc2)nc2ccccc2c1=O` displayed a lipophilicity (logP) of 4.45. In addition, the ED50 in the series with Mus musculus [2] is 86 mg/kg. Further, the Activity is reported as 87.5% with Mus musculus [3], 37.5% in the series on Mus musculus [4] and 50% in the series on Mus musculus [5].
In the case of `O=C(CSc1nc2ccccc2c(=O)n1-c1ccccc1)c1ccc(Cl)cc1`, the logP in series [1] stood at 5.5. Besides, the ED50 in the series with Mus musculus [2] came to 80 mg/kg. Further, the Activity in the series on Mus musculus [3] stood at 87.5%; with Mus musculus [4], 25%; with Mus musculus [5], 62.5%.
`O=C1C=C(Sc2nc3ccccc3c(=O)n2-c2ccccc2)C(=O)N=N1` came in with a logP in series [1] of 2.13. In the series on Mus musculus [2], the ED50 is 66 mg/kg. For the same compound, the Activity with Mus musculus [3] is 100%; in the series with Mus musculus [4], 37.5%; in the series on Mus musculus [5], 62.5%.
The matching figures for `N#Cc1cnn(-c2nc3ccccc3c(=O)n2-c2ccccc2)c1N`: 3.01, 90 mg/kg, 87.5%, 25% and 50%.
For `O=C1NN=C(c2ccccc2)C(c2ccccc2)C1Sc1nc2ccccc2c(=O)n1-c1ccccc1` (stereo unspecified) the same measures were 6.4, 68 mg/kg, 87.5%, 37.5% and 62.5%.
In the case of `CCC1(c2ccccc2)C(=O)NC(=O)NC1=O` [PHENOBARBITAL], the logP in series [1] is 1.36. In addition, the Activity in the series with Mus musculus [6] is listed as 62.5%; in the series with Mus musculus [7], 50%; in the series on Mus musculus [8] it was 37.5%. Further, the ED50 in the series with Mus musculus [2] amounted to 16 mg/kg.
For the compound `CN1C(=O)CN=C(c2ccccc2)c2cc(Cl)ccc21` [DIAZEPAM], the ED50 with Mus musculus [2] worked out at 2 mg/kg.
